In PMC10235848, “Novel N′-substituted benzylidene benzohydrazides linked to 1,2,3-triazoles: potent α-glucosidase inhibitors” (Scientific Reports, 2023):
Blank lines part the entries; values can stand above or below the molecule they belong to.

Legend:
α-glucosidase [1] = molecular target: T1, α-glucosidase (Saccharomyces cerevisiae, UniProt P53341); settings: cited from earlier work
α-glucosidase [2] = molecular target: T1, α-glucosidase; assay: Fluorescence quenching spectroscopy; type: binding; set-up: ΔS: unit not given here; settings: for Kq quenching rate constant / n binding sites: 25 °C; for ΔS: standard thermodynamic values from KA
Experimental: Fluorescence spectrometry was used for studying the interactions between selected α-glucosidase inhibitors (7a, 7d, and 7h) and the enzyme at 25 °C and pH 6.8 to determine the binding constants, number of binding sites, and thermodynamic parameters of the corresponding interactions. Herein, the maximum fluorescence intensity of α-glucosidase was obtained at 340 nm, which can be attributed to tryptophan, tyrosine, and phenylalanine residues that can act as intrinsic fluorescence probes with excitation at 280 nm.
The fluorescence measurements were performed on a Synergy HTX multi-mode reader (Biotek Instruments, Winooski, VT, USA) equipped with a quartz cuvette of 10 mm. The excitation wavelength was 280 nm and the emission spectra were measured in the range from 300 to 440 nm with 10 accumulations for each collection point. The emission spectrum was corrected for the background fluorescence from the buffer solution and for the inner filter effect promoted by the inhibitors. The protein-inhibitors interaction measurements were performed by collecting the fluorescence.
The fluorescence quenching of the protein (P) by a drug or inhibitor (D) was analyzed by Stern−Volmer equation (Eq. 1), where F0 and F are the fluorescence intensity in the absence and presence of a quencher (inhibitor), respectively. [D] is the concentration of inhibitor, Kq is the quenching rate constant, τ0 is the average life-time of the molecule without the quencher (10^−8 s), and KSV is the Stern−Volmer dynamic quenching constant.1 F0/F=1+Kqτ0D=1+KSVD
The reaction of the protein (P) and a drug molecule or inhibitor (D) was considered as Eq. 2, where P is the protein, D is the drug molecule, and DnP is the new complex molecule with the binding constant of KA.2 P+D→DnP
As the number of the binding site of protein and drug is respectively n and 1, the equivalent concentration of the complex DnP is n[DnP]; the equivalent concentration of the protein is n[P] and the equivalent concentration of the drug is [D]. In this respect, the KA value is calculated based on the Eq. (3).3 KA=nDnP/DnP
If the total concentration of protein is [Pt] and the total concentration of the drug is [Dt]: [Pt] = [Pf] + [DnP] and [Df] = [Dt] − n[DnP].
If protein (P) is the only fluorescence in the reaction system, thus:4 F0/F=Pt/Pf where F and F0 are the fluorescence intensity of protein in the presence and absence of drug D, respectively. Therefore, the relationship between the fluorescence intensity and the drug total concentration can be deduced from Eq. (5).5 F0/F=KADtF0/F0-F-nKAPt
Keeping the total concentration of protein at a definite value and varying the total concentration of the drug leads to obtaining the plot of F0/F as a function of [Dt] F0/(F0 − F) following with the calculation of KA.
The standard thermodynamic values were calculated according to Eqs. (6), (7), where ΔH, ΔG, and ΔS are enthalpy, free energy, and entropy changes, respectively. In the case of small changes in temperature, the enthalpy change can be considered as a constant and ΔH is calculated from Eq. (6) following with the calculation of ΔG and ΔS from Eq. (7).6 lnKA2/KA1=1/T1-1/T2ΔH/R 7 ΔG=-RTlnKA=ΔH-TΔS

α-glucosidase [3] = molecular target: T1, α-glucosidase; assay: Fluorescence quenching spectroscopy; type: binding; settings: 35 °C
HEK293 cell line = settings: no reference given; cited from earlier work

T1 sequence (P53341 whole entry): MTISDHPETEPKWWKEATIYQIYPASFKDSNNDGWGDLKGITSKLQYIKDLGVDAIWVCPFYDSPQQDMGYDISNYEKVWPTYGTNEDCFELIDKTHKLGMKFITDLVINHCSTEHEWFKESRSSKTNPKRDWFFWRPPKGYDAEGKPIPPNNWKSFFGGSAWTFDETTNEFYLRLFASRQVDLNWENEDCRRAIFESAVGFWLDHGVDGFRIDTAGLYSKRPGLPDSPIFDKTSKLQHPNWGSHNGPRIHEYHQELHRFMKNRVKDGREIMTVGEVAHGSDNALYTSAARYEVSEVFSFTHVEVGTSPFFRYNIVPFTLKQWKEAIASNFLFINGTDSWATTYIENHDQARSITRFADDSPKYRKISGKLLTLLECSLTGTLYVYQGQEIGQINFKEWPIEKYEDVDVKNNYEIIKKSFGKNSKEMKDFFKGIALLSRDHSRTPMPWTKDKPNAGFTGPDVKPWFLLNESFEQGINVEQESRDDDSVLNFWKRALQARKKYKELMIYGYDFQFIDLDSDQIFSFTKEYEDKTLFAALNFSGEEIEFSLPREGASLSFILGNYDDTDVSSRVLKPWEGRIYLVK

SMILES: CCc1ccc(NC(=O)Cn2cc(COc3ccc(-c4nc5ccccc5[nH]4)cc3)nn2)cc1 [Compound B]
IC50 (α-glucosidase [1]): 25.2 ± 0.9 µM

SMILES: O=c1oc2ccccc2c(O)c1C(c1ccc(OCc2cn(Cc3ccccc3Cl)nn2)cc1)c1c(O)c2ccccc2oc1=O [A]
IC50 (α-glucosidase [1]): 13 ± 1.5 µM | mode of inhibition (α-glucosidase [1]): competitive

SMILES: Cc1ccc(Cn2cc(COc3ccc(C(=O)NN=Cc4ccccc4)cc3)nn2)cc1 [Compound 7d, N′-Benzylidene-4-((1-(4-methylbenzyl)-1H-1,2,3-triazol-4-yl)methoxy)benzohydrazide]
melting point: 154 to 156 °C | Kq quenching rate constant (α-glucosidase [2]): 4.2e+15 M⁻¹ s⁻¹ | n binding sites (α-glucosidase [2]): 0.1 | ΔS (α-glucosidase [2]): 146.0 | Kq quenching rate constant (α-glucosidase [3]): 1e+15 M⁻¹ s⁻¹

SMILES: COC(=O)c1c(C)cc(OC(=O)c2c(C)cc(O)c(/C=N/NC(=O)Cc3ccccc3)c2O)c(C)c1O [E]
toxicity on the HEK293 cell line (HEK293 cell line): without toxicity

SMILES: O=C(NN=Cc1ccc([N+](=O)[O-])cc1)c1ccc(OCc2cn(Cc3ccccc3)nn2)cc1 [Compound 7e, 4-((1-Benzyl-1H-1,2,3-triazol-4-yl)methoxy)-N′-(4-nitrobenzylidene)benzohydrazide]
melting point: 193 to 196 °C

SMILES: O=C(NN=Cc1ccccc1)c1ccc(OCc2cn(Cc3ccccc3Cl)nn2)cc1 [Compound 7c, N′-Benzylidene-4-((1-(2-chlorobenzyl)-1H-1,2,3-triazol-4-yl)methoxy)benzohydrazide]
melting point: 203 to 207 °C

SMILES: Cc1ccc(Cn2cc(COc3ccc(C(=O)NN=Cc4ccc([N+](=O)[O-])cc4)cc3)nn2)cc1 [Compound 7h, 4-((1-(4-Methylbenzyl)-1H-1,2,3-triazol-4-yl)methoxy)-N′-(4-nitrobenzylidene)benzohydrazide]
melting point: 247 to 250 °C | Kq quenching rate constant (α-glucosidase [2]): 1e+15 M⁻¹ s⁻¹ | n binding sites (α-glucosidase [2]): 0.06 | ΔS (α-glucosidase [2]): 71.1 | Kq quenching rate constant (α-glucosidase [3]): 6.8e+15 M⁻¹ s⁻¹

SMILES: O=C(NN=Cc1ccccc1)c1ccc(OCc2cn(Cc3ccc(F)cc3)nn2)cc1 [Compound 7b, N′-Benzylidene-4-((1-(4-fluorobenzyl)-1H-1,2,3-triazol-4-yl)methoxy)benzohydrazide]
melting point: 160 to 163 °C

SMILES: O=C(NN=Cc1ccccc1)c1ccc(OCc2cn(Cc3ccccc3)nn2)cc1 [Compound 7a, 4-((1-Benzyl-1H-1,2,3-triazol-4-yl)methoxy)-N′-benzylidenebenzohydrazide]
Kq quenching rate constant (α-glucosidase [2]): 1.5e+15 M⁻¹ s⁻¹ | n binding sites (α-glucosidase [2]): 0.8 | ΔS (α-glucosidase [2]): 48.37 | Kq quenching rate constant (α-glucosidase [3]): 9e+15 M⁻¹ s⁻¹

SMILES: O=C1Nc2ccccc2/C1=N/N=C/c1ccc(OCc2cn(Cc3ccccc3F)nn2)cc1 [C]
IC50 (α-glucosidase [1]): 16.43 ± 0.01 µM | mode of inhibition (α-glucosidase [1]): competitively

Second part, the molecule after the results:

melting point: 202 to 205 °C
SMILES: O=C(NN=Cc1ccc([N+](=O)[O-])cc1)c1ccc(OCc2cn(Cc3ccc(F)cc3)nn2)cc1 [Compound 7f, 4-((1-(4-Fluorobenzyl)-1H-1,2,3-triazol-4-yl)methoxy)-N′-(4-nitrobenzylidene)benzohydrazide]

melting point: 211 to 214 °C
SMILES: O=C(NN=Cc1ccc(Cl)cc1)c1ccc(OCc2cn(Cc3ccccc3)nn2)cc1 [Compound 7i, 4-((1-Benzyl-1H-1,2,3-triazol-4-yl)methoxy)-N′-(4-chlorobenzylidene)benzohydrazide]

melting point: 222 to 225 °C
SMILES: COc1ccc(C=NNC(=O)c2ccc(OCc3cn(Cc4ccccc4Cl)nn3)cc2)cc1 [Compound 7o, 4-((1-(2-Chlorobenzyl)-1H-1,2,3-triazol-4-yl)methoxy)-N′-(4-methoxybenzylidene)benzohydrazide]

melting point: 224 to 228 °C
SMILES: COc1ccc(C=NNC(=O)c2ccc(OCc3cn(Cc4ccc(C)cc4)nn3)cc2)cc1 [Compound 7p, N′-(4-Methoxybenzylidene)-4-((1-(4-methylbenzyl)-1H-1,2,3-triazol-4-yl)methoxy)benzohydrazide]

melting point: 246 to 248 °C
SMILES: O=C(NN=Cc1ccc(Cl)cc1)c1ccc(OCc2cn(Cc3ccccc3Cl)nn2)cc1 [Compound 7k, 4-((1-(2-Chlorobenzyl)-1H-1,2,3-triazol-4-yl)methoxy)-N′-(4-chlorobenzylidene)benzohydrazide]

melting point: 216 to 218 °C
SMILES: Cc1ccc(Cn2cc(COc3ccc(C(=O)NN=Cc4ccc(Cl)cc4)cc3)nn2)cc1 [Compound 7l, N′-(4-Chlorobenzylidene)-4-((1-(4-methylbenzyl)-1H-1,2,3-triazol-4-yl)methoxy)benzohydrazide]

melting point: 204 to 206 °C
SMILES: O=C(NN=Cc1ccc([N+](=O)[O-])cc1)c1ccc(OCc2cn(Cc3ccccc3Cl)nn2)cc1 [Compound 7g, 4-((1-(2-Chlorobenzyl)-1H-1,2,3-triazol-4-yl)methoxy)-N′-(4-nitrobenzylidene)benzohydrazide]

melting point: 236 to 238 °C
SMILES: O=C(NN=Cc1ccc(Cl)cc1)c1ccc(OCc2cn(Cc3ccc(F)cc3)nn2)cc1 [Compound 7j, N′-(4-Chlorobenzylidene)-4-((1-(4-fluorobenzyl)-1H-1,2,3-triazol-4-yl)methoxy)benzohydrazide]

melting point: 237 to 240 °C
SMILES: COc1ccc(C=NNC(=O)c2ccc(OCc3cn(Cc4ccccc4)nn3)cc2)cc1 [Compound 7m, 4-((1-Benzyl-1H-1,2,3-triazol-4-yl)methoxy)-N′-(4-methoxybenzylidene)benzohydrazide]
